# Experimental data as given in patent US20240285644A1, “ASSESSING AND TREATING PROSTATE CANCER” (Mayo Foundation for Medical Education and Research, priority 2021, published 2024).
# “Also recorded” adds a separate entry of the source.
# What was measured:
# [1] = test system: LNCaP cells; experiment: Quantitative colony forming assay, cell survival of antiandrogen-sensitive LNCaP cells; type: cell-based; settings: for cell survival of LNCaP cells: increasing concentrations of recombinant human NRG-1, vehicle versus enzalutamide (3 μM)
# Excerpt: It was next examined whether NRG-1 polypeptides differentially affect antiandrogen-sensitive and resistant prostate cancer cells. Antiandrogen-sensitive LNCaP prostate cancer cells express androgen receptor, whereas antiandrogen-resistant Du145 and PC3 cells express very limited androgen receptor (FIG. 3A).
# The paradoxical toxic and salutary effects of NRG-1 polypeptides on antiandrogen-sensitive versus antiandrogen-resistant cells mirrors the outcomes in CSPC and CRPC patients, respectively.
# LNCaP cells were then transfected with control shRNA versus shRNA targeting HER3 (FIG. 8A). Knockdown of HER3 rescued LNCaP cells from NRG-1- and enzalutamide-induced cell death (FIG. 7D and FIG. 8B). Relatedly, knockdown of HER2—but not HER4—reduces or eliminates Du145 cell benefit from NRG-1 polypeptide treatment (FIG. 8C-8D). To further confirm that HER2/HER3 heterodimerization can mediate a pro-survival response to NRG-1 polypeptides in CRPC, LNCaP cells were treated with lapatinib that induces HER2/HER3 heterodimerization.
# [2] = test system: NRG-1; experiment: Blood levels of NRG-1 in patients with cancer before and during PARP inhibitor treatment; type: in vivo, human; settings: two patients with cancer (001 niraparib, 002 olaparib), Day 0 versus Days 7, 14
# Protocol: Blood levels of NRG-1 of five patients with cancer were measured prior to and during treatment with PARP inhibitors.
structure (smiles),measurement,setting,value
CNC(=O)c1ccc(N2C(=S)N(c3ccc(C#N)c(C(F)(F)F)c3)C(=O)C2(C)C)cc1F [enzalutamide],cell survival of LNCaP cells,[1],function in an additive manner
same,cell survival of LNCaP cells,[1]; listed as Enz,induced death of LNCaP cells in an additive fashion
CS(=O)(=O)CCNCc1ccc(-c2ccc3ncnc(Nc4ccc(OCc5cccc(F)c5)c(Cl)c4)c3c2)o1 [lapatinib],effect of pre-treatment on NRG-1- and antiandrogen-mediated death of LNCaP cells,"[1]; pre-treatment with lapatinib, then NRG-1 and enzalutamide",rescues LNCaP cells from antiandrogen enzalutamide and NRG-1; also recorded: abolished NRG-1- and antiandrogen-mediated cell death
NC(=O)c1cccc2cn(-c3ccc([C@@H]4CCCNC4)cc3)nc12 [niraparib],blood levels of NRG-1,[2],reduced over the course of treatment
O=C(c1cc(Cc2n[nH]c(=O)c3ccccc23)ccc1F)N1CCN(C(=O)C2CC2)CC1 [olaparib],blood levels of NRG-1,[2],reduced over the course of treatment
same,blood levels of NRG-1,[2]; listed as Olaparib,reduced
